Series [1] can be described thus: Microsomal clearance assay (M). The settings on record: intrinsic clearance in rat liver microsomes. On the technique in general: Liver microsomes are vesicles of endoplasmic reticulum, rich in cytochrome P450 enzymes.
Protocol: The experiments were performed in 96-well glass plates at 37° C. on an automated Tecan EVO platform. Test compounds at a concentration of 10 mM in pure DMSO were diluted 1:1000 in water to 10 μM. […] Reactions were initiated by the addition of 150 μL of a cofactor solution containing 2 mM NADPH.
A further series addresses Vps34 (Homo sapiens, UniProt Q8NEB9). Briefly: Kinase Glo Luminescent Kinase Assay (Kglo), assay C. In kind it is biochemical. The settings on record: read-out: Assay C VPS34 IC50. (In general: Kinase-Glo measures the ATP left after a reaction by luminescence.)
In series [2] the target is T1, PI 3-kinase beta (Homo sapiens, UniProt P42338). The series is described as follows: Kinase Glo Luminescent Kinase Assay (Kglo), assay B. It is filed as biochemical. As to conditions: read-out: Assay B PI3Kβ IC50.
Series [3] addresses T2, PI 3-kinase gamma (Homo sapiens, UniProt P48736). Briefly: TR-FRET Adapta assay, assay E. As to conditions: read-out: Assay E PI3Kγ IC50. It is filed as biochemical. For orientation: In TR-FRET formats the signal depends on donor and acceptor labels being close together.
Protocol: TR-FRET Adapta Assay for PI 3-Kinase Gamma (E), PI 3-Kinase Delta (F)
The TR-FRET Adapta™ Universal Kinase Assay Kit was purchased from Invitrogen Corporation (Carlsbad/CA, USA) (Cat. No. PV5099).
PIK3CD substrate phosphatidylinositol (PI) was obtained from Invitrogen (vesicules consisting of 2 mM phosphatidylinositol (PI) in 50 mM HEPES pH7.5; Cat. No. PV5371). PIK3CG substrate phosphatidylinositol-4,5-bisphosphate (PIP(4,5)2 was obtained from Invitrogen (PIP2:PS large unilamellar vesicules consisting of 1 mM PIP2: 19 mM PS in 50 mM HEPES pH7.5, 3 mM MgCl2, 1 mM EGTA; Cat. No. PV5100).
Time-Resolved Fluorescence Resonance Energy Transfer (TR-FRET) is a technology based on energy transfer between two adjacent dyes, from an excited electron in one dye (the donor) to an electron of an adjacent dye (the acceptor) through resonance, then released as a photon. This energy transfer is detected by an increase in the fluorescence emission of the acceptor, and a decrease in the fluorescence emission of the donor. TR-FRET assays for protein kinases use a long-lifetime lanthanide Terbium or Europium chelates as the donor species which overcome interference from compound autofluorescence or light scatter from precipitated compounds, by introducing a delay after excitation by a flashlamp excitation source. Results are often expressed as a ratio of the intensities of the acceptor and donor fluorophores. The ratiometric nature of such a value corrects for differences in assay volumes between wells, as well as corrects for quenching effects due to colored compounds. The Adapta™ assay can be divided into two phases: a kinase reaction phase and an ADP detection phase. In the kinase reaction phase, all kinase reaction components are added to the well and the reaction is allowed to incubate for a set period of time specific for each kinase. […] In the presence of an inhibitor, the amount of ADP formed by the kinase reaction is reduced, and the resulting intact antibody-tracer interaction maintains a high TR-FRET signal.
50 nL of compound dilutions were dispensed onto white 384-well small volume polystyrene plate. Then 5 μL of either PI 3-kinase gamma or PI 3-kinase delta and lipid substrate (PI or PIP2:PS) followed by 5 μL of ATP (final assay volume 10 μL) are incubated at RT. The standard reaction buffer for the Adapta™ TR-FRET assay contained 10 mM Tris-HCl pH 7.5, 3 mM MgCl2, 50 mM NaCl, 1 mM DTT, 0.05% CHAPS 3-[(3-cholamidopropyl)dimethylammonio]-1-propanesulfonate).
Data are analyzed using Excel fit software or Graphpad Prism. IC50 values were derived by fitting a sigmoidal dose-response curve to a plot of assay readout over inhibitor concentration. All fits were performed with the program XLfit4 (ID Business Solutions, Guildford, UK). […] All fits were performed with the program XLfit4 (ID Business Solutions, Guildford, UK).
A further series has as its target PI 4-kinase beta (Homo sapiens, UniProt Q9UBF8). Briefly: Kinase Glo Luminescent Kinase Assay (Kglo), assay D. As to conditions: read-out: Assay D PI4Kβ IC50. It is filed as biochemical.
The target of series [4] is T2, PI 3-kinase gamma. The series is described as follows: Cellular U937 AKT assay K2 (HTRF). In kind it is cell-based. As to conditions: U937 cells, K2 format; read-out: Assay K2 PI3Kγ IC50.
The target in series [5] is T3, PI 3-kinase alpha (Homo sapiens, UniProt P42336). Briefly: Kinase Glo Luminescent Kinase Assay (Kglo), assay A. The settings on record: read-out: Assay A PI3Kα IC50. It is filed as biochemical.
In series [6] the target is T4, PI 3-kinase delta (Homo sapiens, UniProt O00329). The series is described as follows: TR-FRET Adapta assay, assay F.
Target sequence in this assay (O00329 whole entry): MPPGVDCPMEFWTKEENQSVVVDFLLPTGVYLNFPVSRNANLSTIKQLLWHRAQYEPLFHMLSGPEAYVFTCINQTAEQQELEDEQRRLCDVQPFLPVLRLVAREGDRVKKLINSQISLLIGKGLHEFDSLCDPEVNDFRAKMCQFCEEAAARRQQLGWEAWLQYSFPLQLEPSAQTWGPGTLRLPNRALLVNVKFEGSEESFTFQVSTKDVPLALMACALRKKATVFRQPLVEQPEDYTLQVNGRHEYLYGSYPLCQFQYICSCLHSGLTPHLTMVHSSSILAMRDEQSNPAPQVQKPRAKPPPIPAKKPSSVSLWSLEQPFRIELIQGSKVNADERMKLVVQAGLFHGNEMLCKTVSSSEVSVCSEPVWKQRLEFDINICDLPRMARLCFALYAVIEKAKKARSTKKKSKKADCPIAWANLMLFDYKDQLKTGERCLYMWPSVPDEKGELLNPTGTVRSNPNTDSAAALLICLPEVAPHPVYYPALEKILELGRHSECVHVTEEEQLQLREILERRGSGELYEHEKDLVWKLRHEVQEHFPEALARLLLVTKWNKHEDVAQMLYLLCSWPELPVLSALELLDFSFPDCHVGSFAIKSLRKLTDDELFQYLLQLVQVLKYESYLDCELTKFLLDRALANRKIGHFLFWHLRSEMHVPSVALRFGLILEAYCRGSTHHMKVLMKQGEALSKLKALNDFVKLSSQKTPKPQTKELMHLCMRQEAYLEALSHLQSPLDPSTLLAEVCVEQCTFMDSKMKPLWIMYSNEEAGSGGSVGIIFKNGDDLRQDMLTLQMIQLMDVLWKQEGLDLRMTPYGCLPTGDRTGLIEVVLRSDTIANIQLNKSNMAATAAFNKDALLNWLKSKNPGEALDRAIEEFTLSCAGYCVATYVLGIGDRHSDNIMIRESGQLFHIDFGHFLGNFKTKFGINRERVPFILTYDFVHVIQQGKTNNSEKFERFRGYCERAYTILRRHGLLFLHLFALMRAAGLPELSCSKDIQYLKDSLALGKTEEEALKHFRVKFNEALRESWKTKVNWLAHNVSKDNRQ
Target sequence in this assay (P27986 461-568 partner): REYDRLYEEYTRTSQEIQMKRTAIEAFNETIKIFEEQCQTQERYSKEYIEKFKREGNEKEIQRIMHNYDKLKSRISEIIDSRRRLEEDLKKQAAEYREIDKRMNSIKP
Another series concerns the target mTOR (Homo sapiens, UniProt P42345). Briefly: Lanthascreen kinase binding assay, assay G. As to conditions: read-out: Assay G mTOR IC50.
The target in series [7] is T3, PI 3-kinase alpha. Briefly: Cellular assay H1, p-Akt (S473) in Rat-1 cells, Surefire format. It is filed as cell-based. The settings on record: non-asterisked data: version H1 (Surefire format), Rat-1 cells; read-out: Assay H PI3Kα IC50.
Series [8] deals with T1, PI 3-kinase beta. The series is described as follows: Cellular assay I1, p-Akt (S473) in Rat-1 cells, Surefire format. The settings on record: non-asterisked data: version I1 (Surefire format), Rat-1 cells; read-out: Assay I PI3Kβ IC50. It is filed as cell-based.
Series [9] deals with IL-8-induced neutrophil shape change in human whole blood. The series is described as follows: Whole blood neutrophil shape change assay (L). It is filed as cell-based. As to conditions: Homo sapiens, Neutrophil, IL-8, human whole blood, read-out: Assay L WBSC IC50.
Protocol: Whole Blood Neutrophil Shape Change Assay (L)
IL-8 was made up to 2 μM stocks in 0.1% bovine serum albumin/PBS and stored at −80° C. On the day IL-8 was diluted in PBS (phosphate buffered saline) 10 minutes before use. IL-8 was used at final concentration of 2 nM and a concentration range from 0.003 to 200 nM for the donor dose response curve.
Assay fixative solution was prepared fresh each day from 10× concentrated CellFIX™ solution diluted 1:10 in sterile distilled water and then 1:4 with PBS. Assay fixative solution was kept on ice prior to use.
A 10× lysis buffer was prepared in advance by dissolving 20.75 g NH4Cl and 2.5 g KHCO3 in 250 ml sterile H2O. This 10× lysis buffer was filtered under sterile conditions and stored for up to two weeks at 4° C. On the day a 1× lysis solution was prepared with sterile distilled H2O and kept on ice prior to use.
The test compounds were prepared as 10 mM stock solutions in 100% DMSO and were stored at 4° C. Once in use for an assay 10 mM stock compounds were thawed and stored at RT protected from light. Compound dilutions were prepared fresh on the day. The first series of dilutions in 100% DMSO were done first thing in the morning. Only once blood had been collected and arrived in laboratory was the next set of dilutions into PBS carried out (1:10 PBS, 10% DMSO). This limited the exposure of diluted compound to plastic and made sure the exposure timing was consistent between assays.
Compound dilutions in 100% DMSO were prepared as described previously. Human whole blood was collected in K2 EDTA Vacutainers. Once blood was in the laboratory, compound dilutions into PBS were carried out as described previously and depicted in Table 1.
The outer wells of the deep well assay plate were filled with 1200 μl of sterile distilled H2O in an effort to limit edge effects (rows A1-H1, A1-A12, A12-H12).
An IL-8 dose response was determined for each blood donor examined, to monitor the donor response to IL-8. At this step in assay preparation for the IL-8 dose response samples 10 μl of PBS was added to designated wells. In addition the assay window without DMSO was also assessed each day. For such samples at this step in assay preparation 10 μl of PBS was added in the place of 10% DMSO.
Lids were placed on the 96 well plates and samples were incubated for 15 minutes at 37° C. in a water-bath.
Following the compound pre-incubation 10× final IL-8 was added to appropriate wells (10 μl of 20 nM working stock IL-8, final IL-8 concentration in blood=2 nM) and 10 μl of PBS was added to the un-stimulated controls. 10× final dose response range IL-8 was also added to designated wells (final concentration range on assay plate was 200 nM to 0.0005 nM, 1:5 serial dilution in PBS). The IL-8 and PBS were added to appropriate wells across all assay plates in the same sequence as the blood to compound addition. […] Samples were incubated for 5 minutes at 37° C. in a water-bath. Following the incubation sample plates were transferred to ice where 250 μl of chilled Assay Fixative Buffer was added promptly to all wells.
Samples were incubated on ice for 7 minutes (no mixing). […] Once added samples were mixed once and incubated on ice for 30 minutes to achieve uniform red blood cells lysis. After lysis, 200 μl of sample was transferred to a 96 well microplate on ice. […] Granulocytes were identified based on differential side scatter (SSC) and forward scatter (FSC) characteristics.
Series [10] concerns the target T4, PI 3-kinase delta. The series is described as follows: Cellular assay J1, p-Akt (S473) in Rat-1 cells, Surefire format. In kind it is cell-based. The settings on record: non-asterisked data: version J1 (Surefire format), Rat-1 cells; read-out: Assay J PI3Kδ IC50.
Target sequence in this assay (O00329 whole entry): as the sequence (O00329 whole entry) above
Target sequence in this assay (Q63787 whole entry partner): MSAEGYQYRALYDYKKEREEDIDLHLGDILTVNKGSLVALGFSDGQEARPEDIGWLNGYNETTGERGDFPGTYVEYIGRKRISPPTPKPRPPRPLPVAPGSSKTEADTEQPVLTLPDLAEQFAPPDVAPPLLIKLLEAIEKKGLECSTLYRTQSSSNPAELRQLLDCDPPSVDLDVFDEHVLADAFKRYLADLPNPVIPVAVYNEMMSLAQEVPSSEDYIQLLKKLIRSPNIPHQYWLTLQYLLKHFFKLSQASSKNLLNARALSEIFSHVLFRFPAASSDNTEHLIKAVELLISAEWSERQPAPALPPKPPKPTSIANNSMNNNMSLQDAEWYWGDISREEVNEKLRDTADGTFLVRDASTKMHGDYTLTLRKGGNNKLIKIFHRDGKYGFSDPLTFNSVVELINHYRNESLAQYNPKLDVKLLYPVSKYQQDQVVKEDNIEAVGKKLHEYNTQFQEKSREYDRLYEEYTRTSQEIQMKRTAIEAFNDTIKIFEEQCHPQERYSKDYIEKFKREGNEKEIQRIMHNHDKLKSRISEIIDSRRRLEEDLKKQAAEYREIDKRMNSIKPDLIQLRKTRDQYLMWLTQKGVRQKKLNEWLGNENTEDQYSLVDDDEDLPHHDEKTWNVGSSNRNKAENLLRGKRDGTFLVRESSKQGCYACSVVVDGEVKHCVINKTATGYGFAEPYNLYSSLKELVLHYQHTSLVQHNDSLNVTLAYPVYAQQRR
In series [11] the target is T2, PI 3-kinase gamma. Briefly: Cellular U937 AKT assay K1 (MSD). It is filed as cell-based. The settings on record: U937 cells, K1 format; read-out: Assay K1 PI3Kγ IC50.

Usually IC50 stands for the midpoint of a concentration-inhibition curve.

Vps34, sequence (Q8NEB9 whole entry, species assumed): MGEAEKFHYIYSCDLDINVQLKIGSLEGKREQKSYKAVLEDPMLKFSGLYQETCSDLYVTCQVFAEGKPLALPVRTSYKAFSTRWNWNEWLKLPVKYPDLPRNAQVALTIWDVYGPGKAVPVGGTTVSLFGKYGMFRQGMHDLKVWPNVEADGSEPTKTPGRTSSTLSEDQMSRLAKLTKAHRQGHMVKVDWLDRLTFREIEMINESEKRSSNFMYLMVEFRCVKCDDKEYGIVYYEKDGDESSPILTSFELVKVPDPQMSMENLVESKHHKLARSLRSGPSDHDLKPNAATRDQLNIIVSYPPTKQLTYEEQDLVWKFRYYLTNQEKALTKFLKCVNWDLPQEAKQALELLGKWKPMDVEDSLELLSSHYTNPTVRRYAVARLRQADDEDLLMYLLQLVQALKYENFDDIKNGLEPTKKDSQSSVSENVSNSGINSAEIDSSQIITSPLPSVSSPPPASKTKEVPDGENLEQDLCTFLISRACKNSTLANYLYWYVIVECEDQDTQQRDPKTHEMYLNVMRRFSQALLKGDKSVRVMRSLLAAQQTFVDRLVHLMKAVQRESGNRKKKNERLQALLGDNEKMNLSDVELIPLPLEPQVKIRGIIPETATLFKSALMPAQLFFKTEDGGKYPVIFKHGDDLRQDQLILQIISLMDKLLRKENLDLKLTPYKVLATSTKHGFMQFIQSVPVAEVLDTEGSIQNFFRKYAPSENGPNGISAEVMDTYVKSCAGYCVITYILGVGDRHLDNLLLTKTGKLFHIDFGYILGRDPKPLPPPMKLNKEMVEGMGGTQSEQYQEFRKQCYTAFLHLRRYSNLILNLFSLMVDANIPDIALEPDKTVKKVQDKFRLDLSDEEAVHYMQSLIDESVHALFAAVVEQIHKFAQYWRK
T2 sequence (P48736 whole entry): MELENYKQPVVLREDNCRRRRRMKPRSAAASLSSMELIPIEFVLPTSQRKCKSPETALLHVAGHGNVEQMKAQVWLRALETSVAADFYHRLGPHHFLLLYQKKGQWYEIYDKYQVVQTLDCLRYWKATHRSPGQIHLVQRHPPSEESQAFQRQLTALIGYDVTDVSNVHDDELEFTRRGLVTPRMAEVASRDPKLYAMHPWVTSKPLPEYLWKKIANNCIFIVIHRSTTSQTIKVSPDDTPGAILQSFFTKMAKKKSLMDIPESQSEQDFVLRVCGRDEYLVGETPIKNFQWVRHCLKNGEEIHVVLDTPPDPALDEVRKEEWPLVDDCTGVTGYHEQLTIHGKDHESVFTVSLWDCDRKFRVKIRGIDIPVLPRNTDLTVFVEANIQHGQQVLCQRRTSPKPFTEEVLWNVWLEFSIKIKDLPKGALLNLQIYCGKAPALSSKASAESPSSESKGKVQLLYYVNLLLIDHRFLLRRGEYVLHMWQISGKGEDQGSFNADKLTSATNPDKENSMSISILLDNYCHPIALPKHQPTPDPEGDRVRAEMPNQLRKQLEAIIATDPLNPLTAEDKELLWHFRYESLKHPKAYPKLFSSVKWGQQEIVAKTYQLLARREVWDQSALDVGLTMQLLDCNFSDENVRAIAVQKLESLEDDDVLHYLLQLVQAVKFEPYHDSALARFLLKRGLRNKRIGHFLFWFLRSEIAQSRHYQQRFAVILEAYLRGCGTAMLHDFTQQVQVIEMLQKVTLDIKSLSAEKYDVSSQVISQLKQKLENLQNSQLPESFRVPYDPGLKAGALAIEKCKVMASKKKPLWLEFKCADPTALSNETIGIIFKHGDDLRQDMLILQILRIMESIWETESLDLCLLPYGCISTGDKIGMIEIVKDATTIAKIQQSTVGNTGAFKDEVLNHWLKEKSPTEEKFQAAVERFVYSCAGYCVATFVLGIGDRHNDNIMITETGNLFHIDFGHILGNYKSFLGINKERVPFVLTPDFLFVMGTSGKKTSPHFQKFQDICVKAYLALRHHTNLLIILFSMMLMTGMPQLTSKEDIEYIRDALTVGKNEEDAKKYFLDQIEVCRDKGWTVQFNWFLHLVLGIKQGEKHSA
PI 4-kinase beta, sequence (Q9UBF8 whole entry): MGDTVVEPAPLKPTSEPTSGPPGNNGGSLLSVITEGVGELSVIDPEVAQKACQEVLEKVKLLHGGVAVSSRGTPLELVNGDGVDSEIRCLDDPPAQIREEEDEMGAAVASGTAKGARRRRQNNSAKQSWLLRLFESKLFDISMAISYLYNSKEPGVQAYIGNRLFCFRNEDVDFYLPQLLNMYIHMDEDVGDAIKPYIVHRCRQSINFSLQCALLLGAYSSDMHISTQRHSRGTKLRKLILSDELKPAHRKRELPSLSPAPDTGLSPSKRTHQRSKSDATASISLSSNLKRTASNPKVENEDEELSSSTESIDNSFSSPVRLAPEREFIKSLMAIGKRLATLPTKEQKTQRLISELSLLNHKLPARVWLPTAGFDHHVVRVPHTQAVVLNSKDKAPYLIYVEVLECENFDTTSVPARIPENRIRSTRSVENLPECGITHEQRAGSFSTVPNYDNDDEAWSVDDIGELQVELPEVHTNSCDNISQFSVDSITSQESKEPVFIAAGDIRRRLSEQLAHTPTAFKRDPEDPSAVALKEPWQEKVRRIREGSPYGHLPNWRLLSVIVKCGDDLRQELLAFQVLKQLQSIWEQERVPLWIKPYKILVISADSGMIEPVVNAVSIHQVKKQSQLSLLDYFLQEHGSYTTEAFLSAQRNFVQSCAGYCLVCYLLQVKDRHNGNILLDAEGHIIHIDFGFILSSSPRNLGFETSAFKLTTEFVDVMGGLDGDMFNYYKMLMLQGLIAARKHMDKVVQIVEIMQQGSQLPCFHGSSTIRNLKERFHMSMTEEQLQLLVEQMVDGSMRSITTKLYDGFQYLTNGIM
Protocol for PI 4-kinase beta: Kinase Glo Luminescent Kinase Assay (Kglo) for Pb 3-Kinase Alpha (A), Pb 3-Kinase Beta (B), Vps34 (C), Pb 4-Kinase Beta (D)
The Kinase Glo Luminescent Kinase Assay (Promega, Madison/Wis., USA) is a homogeneous HTS method of measuring kinase activity by quantifying the amount of ATP remaining in solution following a kinase reaction.
L-α-phosphatidylinositol (PI), provided as 10 mg/ml solution in methanol, was transferred into a glass tube and dried under a nitrogen beam. It was then resuspended in 3% OctylGlucoside (1-0-n-octyl-beta-D-glucopyranoside) by vortexing and stored at 4° C. 5 μL of a mix of PI/OctylGlucoside with the PI 3-kinase alpha and PI 3-kinase beta subtypes, or Vps34 or PI 4-kinase beta were added. Kinase reactions were started by the addition of 5 μl of an ATP-mix containing in a final volume 10 μL 10 mM TRIS-HCl pH 7.5, 3 mM MgCl2, 50 mM NaCl, 0.05% CHAPS, 1 mM DTT and 1 μM ATP at room temperature.
All fits were performed with the program XLfit4 (ID Business Solutions, Guildford, UK).
Protocol for mTOR: Lanthascreen™ Kinase Binding Assay for mTOR (G)
Binding of an inhibitor to the kinase competes for binding with the tracer, resulting in a loss of FRET.
50 nL of compound dilutions were dispensed onto white 384-well small volume polystyrene plate.

`Cc1ncc(-c2nc(-c3cc(S(=O)(=O)NC4CCOCC4)ccc3C)cnc2N)s1` [Example 45.3, 3-(5-Amino-6-(2-methylthiazol-5-yl)pyrazin-2-yl)-4-methyl-N-(tetrahydro-2H-pyran-4-yl)benzenesulfonamide]: the “Assay M RLM CI(int)” value in series [1] is 78 µL/min/mg. Besides, the IC50 on Vps34 was 1.6 µM; at PI 3-kinase beta [2], 0.24 µM; at PI 3-kinase gamma [3], 0.013 µM; on PI 4-kinase beta, 1.6 µM; at PI 3-kinase gamma [4], 0.494 µM; at PI 3-kinase alpha [5], 0.04 µM. On PI 3-kinase delta [6] (read-out: Assay F PI3Kδ IC50), the IC50 was determined as 0.1 µM.

Regarding `Cc1ncc(-c2nc(-c3cc(S(=O)(=O)N4CC(CO)C4)ccc3C)cnc2N)s1` [Example 45.8, (1-((3-(5-Amino-6-(2-methylthiazol-5-yl)pyrazin-2-yl)-4-methylphenyl)sulfonyl)azetidin-3-yl)methanol], the “Assay M RLM CI(int)” value in series [1] turned out to be 67 µL/min/mg. Besides, the IC50 turned out to be 2 µM at Vps34; 0.59 µM on PI 3-kinase beta [2]; 0.13 µM on PI 3-kinase gamma [3]; 3.3 µM at PI 4-kinase beta; 0.317 µM at PI 3-kinase gamma [4]; 0.09 µM at PI 3-kinase alpha [5]. The IC50 on PI 3-kinase delta [6] (read-out: Assay F PI3Kδ IC50) came to 0.32 µM.

With `CCN1CCC[C@@H]1CNS(=O)(=O)c1ccc(C)c(-c2cnc(N)c(-n3cncn3)n2)c1` [Example 127.12], the “Assay M RLM CI(int)” value in series [1] is 233 µL/min/mg. Besides, the IC50 on mTOR is more than 10 µM; at PI 3-kinase alpha [7] it was 6.56 µM; on Vps34, more than 10 µM; at PI 3-kinase beta [2] it was 1.5 µM; on PI 3-kinase beta [8], 1.54 µM; in [9], 1.21 µM. Moreover, the IC50 at PI 3-kinase gamma [3] is 0.091 µM; at PI 4-kinase beta it was more than 10 µM; at PI 3-kinase alpha [5] it was 3.5 µM; on PI 3-kinase delta [10], 0.8 µM; on PI 3-kinase delta [6] (read-out: Assay F PI3Kδ IC50), 0.57 µM; on PI 3-kinase gamma [11], 0.359 µM.

As to `Cc1ccc(S(=O)(=O)NCC2(CO)CCCCC2)cc1-c1cnc(N)c(-n2cncn2)n1` [Example 127.52], the “Assay M RLM CI(int)” value in series [1] was more than 924 µL/min/mg. In addition, the IC50 on mTOR was 3.6 µM; on PI 3-kinase alpha [7], 0.97 µM; on Vps34, more than 10 µM; on PI 3-kinase beta [2], 0.34 µM; on PI 3-kinase beta [8], 6.28 µM; in series [9], 1.77 µM. Further, the IC50 at PI 3-kinase gamma [3] came out at 0.009 µM; on PI 4-kinase beta, 3.1 µM; on PI 3-kinase alpha [5], 0.14 µM; on PI 3-kinase delta [10] it was 1.1 µM; at PI 3-kinase delta [6] (read-out: Assay F PI3Kδ IC50) it was 0.33 µM; on PI 3-kinase gamma [11], 0.052 µM.

Regarding `CCN1CCC[C@H]1CNS(=O)(=O)c1ccc(C)c(-c2cnc(N)c(-c3cn(C)nc3C)n2)c1` [Example 128.1, (S)-3-(5-Amino-6-(1,3-dimethyl-1H-pyrazol-4-yl)pyrazin-2-yl)-N-((1-ethylpyrrolidin-2-yl)methyl)-4-methylbenzenesulfonamide], the IC50 at PI 3-kinase alpha [7] is more than 10 µM; at Vps34, more than 10 µM; on PI 3-kinase beta [2], 3 µM; at PI 3-kinase beta [8] it was more than 10 µM; at PI 4-kinase beta it was more than 10 µM; on PI 3-kinase gamma [4], 0.332 µM. Moreover, the IC50 was found to be 1 µM at PI 3-kinase alpha [5], 1.64 µM on PI 3-kinase delta [10] and 0.25 µM on PI 3-kinase delta [6] (read-out: Assay F PI3Kδ IC50).

Take `Cc1cc(-c2nc(-c3cc(S(=O)(=O)NC4CCC(C)(O)CC4)ccc3C)cnc2N)ccn1` (centres unmarked) [Example 129.19, 3-(5-amino-6-(2-methylpyridin-4-yl)pyrazin-2-yl)-N-(4-hydroxy-4-methylcyclohexyl)-4-methylbenzenesulfonamide]: the “Assay M RLM CI(int)” value in [1] was found to be 21 µL/min/mg. Besides, the IC50 at mTOR is 3.02 µM; on PI 3-kinase alpha [7], 8.58 µM; on Vps34, more than 9.1 µM; at PI 3-kinase beta [2] it was 5.11 µM; on PI 3-kinase beta [8], more than 10 µM; in series [9], 3.43 µM. The IC50 came out at 0.066 µM at PI 3-kinase gamma [3]; 7.2 µM at PI 4-kinase beta; 0.33 µM on PI 3-kinase alpha [5]; 4.37 µM at PI 3-kinase delta [10]; 0.47 µM at PI 3-kinase delta [6] (read-out: Assay F PI3Kδ IC50); 0.251 µM at PI 3-kinase gamma [11].

`Cc1cc(-c2nc(-c3cc(S(=O)(=O)NCC4(O)COC4)ccc3C)cnc2N)ccn1` [Example 129.32, 3-(5-amino-6-(2-methylpyridin-4-yl)pyrazin-2-yl)-N-((3-hydroxyoxetan-3-yl)methyl)-4-methylbenzenesulfonamide]: in series [1], the “Assay M RLM CI(int)” value was 18 µL/min/mg. The IC50 on mTOR was more than 9.1 µM; at PI 3-kinase alpha [7], more than 10 µM; at Vps34 it was more than 9.1 µM; on PI 3-kinase beta [2] it was 7 µM; on PI 3-kinase beta [8], more than 10 µM; in series [9], 2 µM. The IC50 was 0.039 µM on PI 3-kinase gamma [3]; more than 9.1 µM at PI 4-kinase beta; 2 µM at PI 3-kinase alpha [5]; more than 10 µM on PI 3-kinase delta [10]; 1.8 µM on PI 3-kinase delta [6] (read-out: Assay F PI3Kδ IC50); 0.8 µM at PI 3-kinase gamma [11].

Regarding `Cc1cc(-c2nc(-c3cc(S(=O)(=O)NC[C@@H]4CCNC4)ccc3C)cnc2N)ccn1` [Example 129.35, (R)-3-(5-amino-6-(2-methylpyridin-4-yl)pyrazin-2-yl)-4-methyl-N-(pyrrolidin-3-ylmethyl)benzenesulfonamide], the IC50 on mTOR is more than 9.1 µM; on Vps34 it was more than 9.1 µM; at PI 3-kinase beta [2], more than 9.1 µM; at PI 3-kinase gamma [3], 0.089 µM; on PI 4-kinase beta, more than 9.1 µM; on PI 3-kinase gamma [4], more than 10 µM. Further, the results for the IC50 on PI 3-kinase alpha [5] and at PI 3-kinase delta [6] (read-out: Assay F PI3Kδ IC50) were 2.1 µM and 1.2 µM, respectively.

Turning to `Cc1ccc(S(=O)(=O)NCCC(C)(C)O)cc1-c1cnc(N)c(-c2cnn(CC(F)(F)F)c2)n1` [Example 130, 3-(5-Amino-6-(1-(2,2,2-trifluoroethyl)-1H-pyrazol-4-yl)pyrazin-2-yl)-N-(3-hydroxy-3-methylbutyl)-4-methylbenzenesulfonamide], in series [1], the “Assay M RLM CI(int)” value came to 62 µL/min/mg. In addition, the IC50 on mTOR is 5.11 µM; at PI 3-kinase alpha [7], 1.63 µM; on Vps34, more than 9.1 µM; at PI 3-kinase beta [2] it was 2.83 µM; on PI 3-kinase beta [8], 4.52 µM; in series [9], 0.735 µM. Further, the IC50 on PI 3-kinase gamma [3] stood at 0.012 µM; on PI 4-kinase beta, 7.01 µM; at PI 3-kinase alpha [5], 0.15 µM; at PI 3-kinase delta [10] it was 1.2 µM; at PI 3-kinase delta [6] (read-out: Assay F PI3Kδ IC50), 0.18 µM; at PI 3-kinase gamma [11] it was 0.065 µM.

Regarding `Cc1cc(-c2nc(-c3cc(S(=O)(=O)N[C@H]4CC[C@H](O)CC4)ccc3C)cnc2N)ccn1` [Example 135, 3-(5-Amino-6-(2-methylpyridin-4-yl)pyrazin-2-yl)-N-((1r,4r)-4-hydroxycyclohexyl)-4-methylbenzenesulfonamide], the “Assay M RLM CI(int)” value in series [1] worked out at 30 µL/min/mg. In addition, the IC50 at mTOR is 4.37 µM; on PI 3-kinase alpha [7] it was 7.84 µM; on Vps34, more than 9.55 µM; on PI 3-kinase beta [2], 5.22 µM; on PI 3-kinase beta [8], 8.75 µM; in series [9] it was 0.359 µM. For the same molecule, the IC50 on PI 3-kinase gamma [3] was determined as 0.051 µM; at PI 4-kinase beta it was 4.16 µM; on PI 3-kinase alpha [5] it was 0.18 µM; at PI 3-kinase delta [10], 9.39 µM; at PI 3-kinase delta [6], 1.7 µM; at PI 3-kinase gamma [11], 0.063 µM.

Turning to `CCc1nnc(-c2nc(-c3cc(S(=O)(=O)N[C@H]4CC[C@H](O)CC4)ccc3C)cnc2N)o1` [Example 138, Trans-3-(5-Amino-6-(5-ethyl-1,3,4-oxadiazol-2-yl)pyrazin-2-yl)-N-((1r,4r)-4-hydroxycyclohexyl)-4-methylbenzenesulfonamide], the “Assay M RLM CI(int)” value in series [1] worked out at 31 µL/min/mg. In addition, the IC50 at mTOR is more than 9.1 µM; at PI 3-kinase alpha [7], 8.8 µM; on Vps34, more than 9.1 µM; at PI 3-kinase beta [2], more than 9.1 µM; at PI 3-kinase beta [8] it was more than 10 µM; in [9] it was 4.83 µM. For the same molecule, the IC50 on PI 3-kinase gamma [3] came to 0.004 µM; on PI 4-kinase beta, 8.54 µM; at PI 3-kinase alpha [5], 2.7 µM; on PI 3-kinase delta [10] it was 3.55 µM; on PI 3-kinase delta [6] (read-out: Assay F PI3Kδ IC50), 0.86 µM; at PI 3-kinase gamma [11], 0.26 µM.

For `CCCc1noc(-c2nc(-c3cc(S(=O)(=O)N[C@H]4CC[C@H](O)CC4)ccc3C)cnc2N)n1` [Example 140, Trans-3-[5-Amino-6-(3-propyl-[1,2,4]oxadiazol-5-yl)-pyrazin-2-yl]-N-(4-hydroxy-cyclohexyl)-4-methyl-benzene sulfonamide], the “Assay M RLM CI(int)” value in series [1] amounted to 82 µL/min/mg. For the same molecule, the concentration for half-maximal inhibition (IC50) on mTOR was 8.82 µM; on PI 3-kinase alpha [7] it was 1.11 µM; at Vps34 it was more than 9.1 µM; on PI 3-kinase beta [2], 7.16 µM; on PI 3-kinase beta [8], 6.38 µM; in series [9], 0.817 µM. Further, the IC50 on PI 3-kinase gamma [3] was 0.016 µM; at PI 4-kinase beta it was more than 9.1 µM; on PI 3-kinase alpha [5], 0.24 µM; at PI 3-kinase delta [10], 0.84 µM; on PI 3-kinase delta [6] (read-out: Assay F PI3Kδ IC50), 0.09 µM; at PI 3-kinase gamma [11], 0.051 µM.
